This is an account of results in patent US20110059123A1, “Inhibition of the Survival of Colorectal Cancer by Cyclohexenone Compounds from Antrodia Camphorata” (GOLDEN BIOTECHNOLOGY CORPORATION, priority 2009, published 2011).

This assay relates to colorectal cancer cell line WiDr. Put plainly: In vitro survival assay (MTT) for anti-colorectal cancer effects. Format: cell-based. The following applies: WiDr human colon adenocarcinoma cells, 48 hours treatment, survival rate. The procedure: Inhibiting effects of colorectal cancer cells by cyclohexenone compounds of Antrodia camphorata from example 1 were assessed according to the anticancer-drug screening model of National Cancer Institute (NCI). The compound 4-hydroxy-2,3-dimethoxy-6-methyl-5-(3,7,11-trimethyl-dodeca-2,6,10-trienyl)-cyclohex-2-enone from example 1 was added into the culture media of colorectal cancer cell line WiDr to determine the survival rates. Survival of cell was analyzed using MTT assay. WiDr cell line was a human colon adenocarcinoma cell line.
MTT assay is commonly used to analyze cell proliferation, survival rate of viable cells and cytotoxicity. MTT (3[4,5-dimethylthiazol-2-yl]-2,5-diphenyltetrazolium bromide) is a yellow dye which can be converted to water-insoluble purple formazan on the reductive cleavage of its tetrazolium ring by the succinate tetrazolium reductase in mitochondria of cells. The amount of formazan produced is used to detect the number of viable cells and calculate the survival rates.
The WiDr cells were cultivated in RPMI 1640 medium supplemented with 10% fetal bovine serum, 100 IU/ml of Penicillin and […] of Streptomycin at 37° C., 5% CO2 for 24 hours. Proliferated cells were washed once with PBS, treated with 1× trypsin-EDTA, and centrifuged at 1200 rpm for 5 min. […] The absorbances were measured at 570 nm with an ELISA Reader to determine the survival rates.

As to `COC1=C(OC)C(O)C(C/C=C(\C)CC/C=C(\C)CCC=C(C)C)C(C)C1=O` (stereo not shown) [formula 2, 4-hydroxy-2,3-dimethoxy-6-methyl-5-(3,7,11-trimethyl-dodeca-2,6,10-trienyl)-cyclohex-2-enone], the IC50 – broadly, the concentration needed to halve the response being measured – was 0.92 µg/mL.
